Consider 1 compound from ChEMBL document CHEMBL1144467, “Effect of topical microbicides on infectious human immunodeficiency virus type 1 binding to epithelial cells” (2007).

Test [1] deals with Human immunodeficiency virus 1. Briefly: Inhibition of HIV1 LAI binding to human A431 cells relative to control. Format: functional, organism-based. The settings on record: A-431.
Test [2] concerns Human immunodeficiency virus 1. In words: Inhibition of HIV1 BaL binding to human Caco-2 cells relative to control. Format: functional, organism-based.
The subject of test [3] is Human immunodeficiency virus 1. Briefly: Inhibition of HIV1 LAI binding to human Caco-2 cells relative to control. It is filed as functional, organism-based.
Test [4] concerns Human immunodeficiency virus 1. Briefly: Antiviral activity against HIV1 BaL assessed as logReduction in viral transmission from human A431 cells to human PBMC by ELISA. It is filed as functional. In general terms: In an ELISA, binding on a coated surface is turned into a signal by an enzyme label.
For test [5], the system named is Human immunodeficiency virus 1. In words: Inhibition of HIV1 BaL binding to human A431 cells relative to control. The settings on record: A-431. It is filed as functional, organism-based.

The source made the active and inactive calls. The rule behind the calls is not given here.

Turning to `CC(C)=CCOc1cc(NC(=S)c2ccoc2C)ccc1Cl` [UC 781], the outcome in test [1], in test [2], in test [3] and in test [5] was inactive. Besides, the Activity in test [4] stood at 6.1.
